Assay [1] relates to CD4 T cells. The class given is cell-based, HLA-DR1 transgenic mice. The settings on record: average of at least 3 independent assays.
For assay [2], the target named is purified soluble DR1 molecules (Homo sapiens, UniProt P01903+P01911, A100R/D57E/F55L/F60I/F76Y/I96L/L162R/M171V/P40L/Q125E/R42F/V115G/Y59C). The class given is binding.
The test system of assay [3] is CD4 T cells. The following applies: immunodominant or cryptic epitope presented by I-A^d; cited from earlier work.

Results on seven sequences are retold here after publication PMC3331894 (Journal of Immunology (Baltimore, Md. : 1950), 2012).

For KRNLLWLTGKNGL [HA-162], the “Cytokine Spots (number of CD4 T cell recruited per million)” value in the assay on CD4 T cells [1] is 163 spots per million CD4 T cells. In addition, in assay [2], the “dissociation half-time (t1/2) of DR1:peptide complexes” value came to 3.54 days and the “t1/2 (h) pH 5.3, dissociation of DR1:peptide complexes” value is reported as 85 h.
For ELLVLLENERTLDFHD [HA-440], in that order: 146 spots per million CD4 T cells, 14.6 days and 350 h.
AMKRHGLDNYRGYSL [HEL[11–25]]: the “Immune Response” value with CD4 T cells [3] is given as “Cryptic”.
For HNTNGVTAACSHE [HA[126–138]], the “Immune Response” value in the assay with CD4 T cells [3] is given as “Cryptic”.
As to HNVNGVTAACSHE [HA[126–138]T128V], in the assay on CD4 T cells [3], the “Immune Response” value was “Dominant”.
In the case of SGYAADQKSTQNAINGI [HA-375], in assay [2], the “dissociation half-time (t1/2) of DR1:peptide complexes” value was 25 days and the “t1/2 (h) pH 5.3, dissociation of DR1:peptide complexes” value is listed as 600 h.
With MEERKIKVYLPRMKME [OVA[273–288]], the “Immune Response” value with CD4 T cells [3] is reported as “Dominant”.
